Patent US20230271950A1, “ANTIBACTERIAL PICOLINAMIDE COMPOUNDS” (University of Notre Dame Du Lac, priority 2020, published 2023)
Values after ≈ are worked out from the molar mass of the structure shown. Where two headings read alike, the source gives them in different places.

How the values were obtained:
[1] = system: C. difficile; assay: MIC by broth microdilution against C. difficile strains; assay type: cell-based, Clostridioides difficile; settings: Clostridioides difficile; for MIC: read-out: MIC
[2] = system: MRSA (NRS70, NRS119); assay: MIC against MRSA strains; assay type: cell-based, Staphylococcus aureus
[3] = system: S. aureus ATCC29213; assay: MIC against MSSA; assay type: cell-based, Staphylococcus aureus; settings: Staphylococcus aureus; S. aureus ATCC29213; Table 1; read-out: MIC
[4] = system: Bacteroides fragilis; assay: MIC against gut bacterium Bacteroides fragilis; assay type: cell-based; settings: Bacteroides fragilis strain HM-709
[5] = system: Bifidobacterium longum; assay: MIC against gut bacterium Bifidobacterium longum; assay type: cell-based; settings: Bifidobacterium longum strain HM-846
[6] = system: Corynebacterium spp.; assay: MIC against gut bacterium Corynebacterium spp.; assay type: cell-based; settings: Corynebacterium spp. strain HM-784; Table 1
[7] = system: Fusobacterium nucleatum; assay: MIC against gut bacterium Fusobacterium nucleatum; assay type: cell-based; settings: Fusobacterium nucleatum strain HM-992
[8] = system: Lactobacillus reuteri; assay: MIC against gut bacterium Lactobacillus reuteri; assay type: cell-based
[9] = system: Lactobacillus gasseri; assay: MIC against gut bacterium Lactobacillus gasseri; assay type: cell-based
[10] = system: Veillonella sp. HM-49; assay: MIC against gut bacterium Veillonella sp.; assay type: cell-based
[11] = system: Eubacterium sp.; assay: MIC against gut bacterium Eubacterium sp.; assay type: cell-based; settings: Eubacterium sp. strain HM-178
[12] = system: Fecal microbiota preparation; assay: MIC against fecal microbiota preparation; assay type: cell-based; settings: Fecal microbiota preparation from OpenBiome tested at 1000-fold dilution
Protocol: Minimum inhibitory concentrations (MIC). MICs for C. difficile strains and the common gut bacteria were determined using broth microdilution techniques as reported earlier using brucella broth supplemented with hemin and vitamin K or supplemented BHIS broth. Lactobacillus MRS broth was used for lactobacillus strains. Sodium lactate was supplemented in the media for Veillonella sp. […] All incubations, unless specified otherwise, were carried out at 24 h or 48 h at 37° C. in an anaerobic chamber (Whitley DG250 workstation, Microbiology International, Frederick, Md.). Corynebacterium and Lactobacillus species were incubated aerobically.

Question: For `CN[C@H](CC(C)C)C(=O)N[C@H]1C(=O)N[C@@H](CC(N)=O)C(=O)N[C@H]2C(=O)N[C@H]3C(=O)N[C@H](C(=O)N[C@H](C(=O)O)c4cc(O)cc(O)c4-c4cc3ccc4O)[C@H](O)c3ccc(c(Cl)c3)Oc3cc2cc(c3O[C@@H]2O[C@H](CO)[C@@H](O)[C@H](O)[C@H]2O[C@H]2C[C@](C)(N)[C@H](O)[C@H](C)O2)Oc2ccc(cc2Cl)[C@H]1O` [VAN, vancomycin, reference compound], which MIC ([1]; ATCC43598, C. difficile ATCC43598, Table 7) is on record?
Answer: 1 µg/mL (≈ 0.69 µM)

Question: And the MIC ([1]; ATCC43598, C. difficile ATCC43598, Table 9)?
Answer: 1 µg/mL (≈ 0.69 µM)

Question: What about the MIC ([1]; BAA1801, C. difficile BAA-1801, Table 7) of the same compound?
Answer: 0.25 µg/mL (≈ 0.173 µM)

Question: What about the MIC ([1]; BAA1801, C. difficile BAA-1801, Table 9) of the same compound?
Answer: 0.25 µg/mL (≈ 0.173 µM)

Question: What about the MIC ([1]; BAA1803, C. difficile BAA-1803, Table 7) of the same compound?
Answer: 2 µg/mL (≈ 1.38 µM)

Question: What about the MIC ([1]; BAA1803, C. difficile BAA-1803, Table 9) of the same compound?
Answer: 2 µg/mL (≈ 1.38 µM)

Question: And the MIC ([1]; BAA1804, C. difficile BAA-1804, Table 7)?
Answer: 1 µg/mL (≈ 0.69 µM)

Question: What about the MIC ([1]; BAA1804, C. difficile BAA-1804, Table 9) of the same compound?
Answer: 1 µg/mL (≈ 0.69 µM)

Question: And the MIC ([1]; BAA1870, C. difficile BAA-1870 (NAP1, ribotype 27), Table 1)?
Answer: 2 µg/mL (≈ 1.38 µM)

Question: And the MIC ([1]; BAA1870, C. difficile BAA-1870, Table 7)?
Answer: 2 µg/mL (≈ 1.38 µM)

Question: And the MIC ([1]; BAA1870, C. difficile BAA-1870, Table 9)?
Answer: 2 µg/mL (≈ 1.38 µM)

Question: And the MIC ([1]; C. difficile 23691 (VR, vancomycin-resistant), Table 7)?
Answer: 4 µg/mL (≈ 2.76 µM)

Question: And the MIC ([1]; C. difficile 23691, clinical isolate resistant to VAN, Table 1)?
Answer: 4 µg/mL (≈ 2.76 µM)

Question: What about the MIC ([1]; C. difficile 23691, Table 9) of the same compound?
Answer: 4 µg/mL (≈ 2.76 µM)

Question: And the MIC ([1]; C. difficile 23828 (FR, fidaxomicin-resistant), Table 7)?
Answer: 2 µg/mL (≈ 1.38 µM)

Question: And the MIC ([1]; C. difficile 23828, clinical isolate resistant to FDX, Table 1)?
Answer: 2 µg/mL (≈ 1.38 µM)

Question: What about the MIC ([1]; C. difficile 23828, Table 9) of the same compound?
Answer: 2 µg/mL (≈ 1.38 µM)

Question: What about the MIC ([1]; C. difficile 24531 (VR, vancomycin-resistant), Table 7) of the same compound?
Answer: 4 µg/mL (≈ 2.76 µM)

Question: What about the MIC ([1]; C. difficile 24531, Table 9) of the same compound?
Answer: 4 µg/mL (≈ 2.76 µM)

Question: What about the MIC ([1]; C. difficile 24923 (VR, vancomycin-resistant), Table 7) of the same compound?
Answer: 8 µg/mL (≈ 5.52 µM)

Question: What about the MIC ([1]; C. difficile 24923, Table 9) of the same compound?
Answer: 8 µg/mL (≈ 5.52 µM)

Question: And the MIC ([1]; C. difficile 26675 (MR, metronidazole-resistant), Table 7)?
Answer: 1 µg/mL (≈ 0.69 µM)

Question: And the MIC ([1]; C. difficile 26675, clinical isolate resistant to MTZ, Table 1)?
Answer: 1 µg/mL (≈ 0.69 µM)

Question: What about the MIC ([1]; C. difficile 26675, Table 9) of the same compound?
Answer: 1 µg/mL (≈ 0.69 µM)

Question: What about the MIC ([1]; C. difficile 27081 (FR, fidaxomicin-resistant), Table 7) of the same compound?
Answer: 1 µg/mL (≈ 0.69 µM)

Question: And the MIC ([1]; C. difficile 27081, Table 9)?
Answer: 1 µg/mL (≈ 0.69 µM)

Question: And the MIC ([1]; C. difficile HM-89, Table 9)?
Answer: 0.25 µg/mL (≈ 0.173 µM)

Question: What about the MIC ([1]; C. difficile NR49292, Table 7) of the same compound?
Answer: 0.25 µg/mL (≈ 0.173 µM)

Question: What about the MIC ([1]; C. difficile NR49292, Table 9) of the same compound?
Answer: 0.25 µg/mL (≈ 0.173 µM)

Question: And the MIC ([1]; C. difficile NR49294, Table 7)?
Answer: 0.25 µg/mL (≈ 0.173 µM)

Question: And the MIC ([1]; C. difficile NR49294, Table 9)?
Answer: 0.25 µg/mL (≈ 0.173 µM)

Question: And the MIC ([1]; C. difficile NR49318, Table 7)?
Answer: 0.25 µg/mL (≈ 0.173 µM)

Question: And the MIC ([1]; C. difficile NR49318, Table 9)?
Answer: 0.25 µg/mL (≈ 0.173 µM)

Question: And the MIC ([1]; C. difficile NR-13427, Table 9)?
Answer: 1 µg/mL (≈ 0.69 µM)

Question: What about the MIC ([1]; C. difficile NR-13428, Table 9) of the same compound?
Answer: 2 µg/mL (≈ 1.38 µM)

Question: And the MIC ([1]; C. difficile NR-13431, Table 9)?
Answer: 0.25 µg/mL (≈ 0.173 µM)

Question: And the MIC ([1]; C. difficile NR-13433, Table 9)?
Answer: 1 µg/mL (≈ 0.69 µM)

Question: And the MIC ([1]; C. difficile NR-32885, Table 9)?
Answer: 1 µg/mL (≈ 0.69 µM)

Question: And the MIC ([1]; C. difficile NR-32889, Table 9)?
Answer: 2 µg/mL (≈ 1.38 µM)

Question: And the MIC ([1]; C. difficile NR-32890, Table 9)?
Answer: 2 µg/mL (≈ 1.38 µM)

Question: And the MIC ([1]; C. difficile NR-32891, Table 9)?
Answer: 1 µg/mL (≈ 0.69 µM)

Question: What about the MIC ([1]; C. difficile NR-32895, Table 9) of the same compound?
Answer: 2 µg/mL (≈ 1.38 µM)

Question: What about the MIC ([1]; C. difficile NR-32896, Table 9) of the same compound?
Answer: 2 µg/mL (≈ 1.38 µM)

Question: And the MIC ([1]; C. difficile NR-32897, Table 9)?
Answer: 0.25 µg/mL (≈ 0.173 µM)

Question: What about the MIC ([1]; C. difficile NR-32900, Table 9) of the same compound?
Answer: 1 µg/mL (≈ 0.69 µM)

Question: And the MIC ([1]; C. difficile NR-32904, Table 9)?
Answer: 0.25 µg/mL (≈ 0.173 µM)

Question: And the MIC ([1]; C. difficile NR-49280, Table 9)?
Answer: 1 µg/mL (≈ 0.69 µM)

Question: What about the MIC ([1]; C. difficile NR-49285, Table 9) of the same compound?
Answer: 0.25 µg/mL (≈ 0.173 µM)

Question: What about the MIC ([1]; C. difficile NR-49291, Table 9) of the same compound?
Answer: 1 µg/mL (≈ 0.69 µM)

Question: What about the MIC ([1]; C. difficile NR-49298, Table 9) of the same compound?
Answer: 1 µg/mL (≈ 0.69 µM)

Question: And the MIC ([1]; C. difficile NR-49306, Table 9)?
Answer: 1 µg/mL (≈ 0.69 µM)

Question: What about the MIC ([1]; C. difficile NR-49307, Table 9) of the same compound?
Answer: 1 µg/mL (≈ 0.69 µM)

Question: And the MIC ([1]; C. difficile NR-49309, Table 9)?
Answer: 1 µg/mL (≈ 0.69 µM)

Question: What about the MIC ([1]; C. difficile NR-49320, Table 9) of the same compound?
Answer: 1 µg/mL (≈ 0.69 µM)

Question: What about the MIC ([1]; C. difficile NR-49321, Table 9) of the same compound?
Answer: 0.25 µg/mL (≈ 0.173 µM)

Question: And the MIC ([1]; C. difficile NR-49328, Table 9)?
Answer: 0.25 µg/mL (≈ 0.173 µM)

Question: What about the MIC ([1]; C. difficile NR-49329, Table 9) of the same compound?
Answer: 0.25 µg/mL (≈ 0.173 µM)

Question: And the MIC90 ([1]; read-out: MIC90 (101 strains))?
Answer: 2 µg/mL (≈ 1.38 µM)

Question: And the MIC ([2]; MRSA NRS70, Table 7)?
Answer: 2 µg/mL (≈ 1.38 µM)

Question: What about the MIC ([2]; MRSA NRS119, Table 1) of the same compound?
Answer: 2 µg/mL (≈ 1.38 µM)

Question: What about the MIC ([2]; Staphylococcus aureus, MRSA NRS70, Table 1, read-out: MIC) of the same compound?
Answer: 2 µg/mL (≈ 1.38 µM)

Question: What about the MIC [3] of the same compound?
Answer: 1 µg/mL (≈ 0.69 µM)

Question: What about the MIC ([4]; Table 1, read-out: MIC) of the same compound?
Answer: 16 µg/mL (≈ 11 µM)

Question: And the MIC ([4]; Table 7)?
Answer: 16 µg/mL (≈ 11 µM)

Question: And the MIC ([5]; Table 1, read-out: MIC)?
Answer: 0.25 µg/mL (≈ 0.173 µM)

Question: What about the MIC ([5]; Table 7) of the same compound?
Answer: 0.25 µg/mL (≈ 0.173 µM)

Question: And the MIC [6]?
Answer: 0.25 µg/mL (≈ 0.173 µM)

Question: What about the MIC ([7]; Table 1, read-out: MIC) of the same compound?
Answer: 0.25 µg/mL (≈ 0.173 µM)

Question: And the MIC ([7]; Table 7)?
Answer: 0.25 µg/mL (≈ 0.173 µM)

Question: What about the MIC ([8]; Lactobacillus reuteri strain HM-102, Table 7) of the same compound?
Answer: >32 µg/mL

Question: What about the MIC ([8]; Limosilactobacillus reuteri, Lactobacillus reuter strain HM-102, Table 1, read-out: MIC) of the same compound?
Answer: > 32 µg/mL

Question: And the MIC ([9]; Lactobacillus gasseri strain HM-644, Table 7)?
Answer: 1 µg/mL (≈ 0.69 µM)

Question: What about the MIC ([9]; Lactobacillus gasseri, Lactobacillus gasser strain HM-644, Table 1, read-out: MIC) of the same compound?
Answer: 1 µg/mL (≈ 0.69 µM)

Question: And the MIC ([10]; SP.HM49, Veillonella sp. HM-49, Table 1, read-out: MIC)?
Answer: > 32 µg/mL

Question: What about the MIC ([10]; Veillonella sp. strain HM-49, Table 7) of the same compound?
Answer: >32 µg/mL

Question: And the MIC ([11]; Table 1, read-out: MIC)?
Answer: 2 µg/mL (≈ 1.38 µM)

Question: And the MIC ([11]; Table 7)?
Answer: 2 µg/mL (≈ 1.38 µM)

Question: What about the MIC [12] of the same compound?
Answer: > 128 µg/mL
